Data on 31 compounds can be found in US10751301B2, “Methods for inhibiting conversion of choline to trimethylamine (TMA)” (The Procter & Gamble Company, priority 2017, dated 2020).

SMILES strings stand for the structures. pEC50, pIC50: −log10 of the molar value. Like-named read-outs stand apart in the source and are kept apart here.

For series [1], the system named is Proteus mirabilis 29906 (Pm) lysate. Description: Inhibition of formation of TMA from choline in Proteus mirabilis lysate (Example 2). Format: biochemical. Conditions: read-out: TMA Inhibition (IC50, mol/L).
Series [2] has as its system fecal polymicrobial community. Conditions: male, human.
The next series concerns C57b1/6 female mice. The experiment in a line: Rapid preclinical method, d9-choline challenge in mice (Example 6). Type of series: in vivo. To be noted: for Calculated EC50 (mg/kg) compared to Vehicle Control: mice, oral gavage with 2 mg d9-Choline, Time 3 hr.
The test system of series [3] is human fecal polymicrobial community. The experiment in a line: Human fecal polymicrobial incubation with d9-choline, TMA inhibition (Example 3). Type of series: cell-based.
Series [4] concerns whole cell wild-type P. mirabilis. Description: Inhibition of conversion of choline to TMA by whole cell wild-type P. mirabilis (Example 5). Type of series: cell-based.
The subject of a further series is mice (C57b1/6). The experiment in a line: Preclinical screening method, plasma TMAO in mice on 1% choline added diet (Example 4). Format: in vivo. To be noted: oral gavage once daily, 310 mg/kg/day.
Series [5] deals with recombinant P. mirabilis Cut C/D lysate (Proteus mirabilis, UniProt B4EYG1). Description: biochemical.
Series [6] addresses recombinant D. alaskensis Cut C/D lysate (Oleidesulfovibrio alaskensis, UniProt Q30W70). The experiment in a line: biochemical.
Where [7] appears, read: Proteus mirabilis; read-out: EC50 (mol/L) whole cell wild-type P. mirabilis.
The mark [8] stands for this setting: Pm lysate 1.5 mg/mL protein, 50 μM d9-choline chloride, 37° C. two hours.
The mark [9] stands for this setting: Homo sapiens, 0.2% fecal slurry, 50 μM d9-choline chloride, 20 hours, 37° C., anaerobic, ND=not detectable, read-out: Example 3, TMA Inhibition (IC50, mol/L).

Sequence of recombinant D. alaskensis Cut C/D lysate (Q30W70 whole entry): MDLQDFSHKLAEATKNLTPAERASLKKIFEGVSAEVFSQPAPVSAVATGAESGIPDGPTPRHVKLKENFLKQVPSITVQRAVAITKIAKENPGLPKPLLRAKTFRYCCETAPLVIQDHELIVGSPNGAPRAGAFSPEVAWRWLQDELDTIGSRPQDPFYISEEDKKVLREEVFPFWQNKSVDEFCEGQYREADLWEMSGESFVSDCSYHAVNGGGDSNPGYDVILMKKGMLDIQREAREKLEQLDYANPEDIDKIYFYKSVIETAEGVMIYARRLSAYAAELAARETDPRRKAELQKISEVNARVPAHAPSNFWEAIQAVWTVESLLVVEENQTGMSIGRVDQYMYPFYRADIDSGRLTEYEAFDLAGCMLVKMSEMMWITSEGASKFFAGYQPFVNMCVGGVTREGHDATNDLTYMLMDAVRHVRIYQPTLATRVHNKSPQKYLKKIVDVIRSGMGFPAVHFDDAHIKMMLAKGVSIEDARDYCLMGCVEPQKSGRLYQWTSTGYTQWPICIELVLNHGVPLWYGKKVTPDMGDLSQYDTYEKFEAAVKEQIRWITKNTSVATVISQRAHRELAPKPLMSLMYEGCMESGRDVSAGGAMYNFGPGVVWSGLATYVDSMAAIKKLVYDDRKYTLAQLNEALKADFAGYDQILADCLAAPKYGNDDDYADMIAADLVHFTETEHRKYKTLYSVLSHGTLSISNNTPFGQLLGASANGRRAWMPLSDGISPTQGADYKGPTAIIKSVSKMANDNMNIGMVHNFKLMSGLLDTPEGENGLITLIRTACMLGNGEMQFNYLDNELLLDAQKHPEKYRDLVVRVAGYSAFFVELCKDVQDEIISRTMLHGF

Regarding `C[S+](CI)CCO` (stereo not shown) [compound 6], the pIC50 in series [1] was 5.69. Further, the “Lowest concentration tested at which cell viability was 10% or lower” value in series [2] is 250 µM.

Regarding `CC[S+](C)CCO.[I-]` (stereo not shown) [Methylethylthioethanol iodide], in the series with C57b1/6 female mice (time not given), the “EC50, inhibits the conversion of choline to TMA, assay of EXAMPLE 6” value worked out at 0.8 mg/kg. In series [3] (Homo sapiens, read-out: IC50, inhibits the conversion of choline to TMA, assay of Example 3), the pIC50 is 5.05.

With `C#CC[S+](C)C` [ID 20, Dimethyl(prop-2-ynyl)sulfonium], the pEC50 in series [4] (setting [7]) was 4.12. Moreover, the “Remaining plasma TMAO as a percentage of plasma TMAO in same day vehicle control (% of control remaining)” value with mice (C57b1/6) (Days 1) was found to be 0.35%. Moreover, the “Calculated EC50 (mg/kg) compared to Vehicle Control” value in the series on C57b1/6 female mice is reported as 9.00 mg/kg. In addition, the pIC50 was 7.89 in series [5] and 7.17 in series [6].

Take `C=C(C)C[S+](C)CCO` (stereo not shown) [compound 9, 2-hydroxyethyl-methyl-(2-methylallyl)sulfonium]: the pIC50 in series [1] (setting [8]) is 3.78.

`C=CC[S+](C)C` [ID 21, Allyl(dimethyl)sulfonium]: the pEC50 in series [4] (setting [7]) was 6.80. In the series with C57b1/6 female mice, the “Calculated EC50 (mg/kg) compared to Vehicle Control” value is recorded as 0.19 mg/kg. Further, the pIC50 in series [5] was 6.60; in series [6], 6.39.

Consider `CC[S+](CCO)c1ccccc1` (stereo not shown) [compound 17, Phenyl-(2-hydroxyethyl)-ethyl-sulfonium], for which the pIC50 is 3.72 in series [1] (setting [8]) and 3.12 in series [3] (setting [9]).

`C[S+](CCO)c1ccccc1` (stereo not shown) [compound 16, Phenyl-(2-hydroxyethyl)-methyl-sulfonium]: the results for the pIC50 in series [1] (setting [8]) and in series [3] (setting [9]) were 3.52 and 5.79, respectively.

For `C#CC[S+](C)C` [compound 20], the pIC50 in series [1] (setting [8]) was 8.00; in series [3] (setting [9]), 6.97.

Regarding `C=C(C)C[S+](C)CCO` (stereo not shown) [ID 9, 2-hydroxyethyl-methyl-(2-methylallyl)sulfonium], in series [4] (setting [7]), the pEC50 is 4.64. For the same compound, the pIC50 in series [5] is 5.23; in series [6] it was 6.19.

As to `CCCC[S+](C)CCO` (stereo not shown) [compound 14, Butyl-(2-hydroxyethyl)-methyl-sulfonium], the values for the pIC50 in series [1] (setting [8]) and in series [3] (setting [9]) were 4.53 and 6.25, respectively.

Turning to `C#CC[S+]1CCOCC1` [compound 24, 4-prop-2-ynyl-1,4-oxathian-4-ium], the pIC50 in series [1] (setting [8]) is 4.26.

With `C=CC[S+](C)C` [compound 21], the pIC50 in series [1] (setting [8]) is 7.18; in series [3] (setting [9]) it was 5.84.

For `C#CC[S+](C)CCO` (stereo not shown) [compound 2, Propargyl-(2-hydroxyethyl)-methyl-sulfonium], the pIC50 was 7.42 in series [1] (setting [8]) and 5.53 in series [3] (setting [9]).

On to `C[S+](CCO)CCBr` (stereo not shown) [compound 11, (2-bromoethyl)(2-hydroxyethyl)methylsulfonium], for which the pIC50 in series [1] is 6.66; in series [3] (Homo sapiens, 20 h, read-out: Example 3, TMA Inhibition (IC50, mol/L)), 5.52.

Regarding `C/C=C/C[S+](C)CCO` (stereo not shown) [compound 8, [(E)-but-2-enyl]-(2-hydroxyethyl)-methyl-sulfonium], the pIC50 in series [1] (setting [8]) was 7.82.

`[O-][S+]1CCOCC1` [compound 19, 4-oxido-1,4-oxathian-4-ium]: the pIC50 was 3.63 in series [1] and 4.61 in series [3] (read-out: Example 3, TMA Inhibition (IC50, mol/L)).

Consider `C=CC[S+]1CCOCC1` [compound 7, 4-allyl-1,4-oxathian-4-ium], for which the pIC50 in series [1] (setting [8]) is 4.80.

`CCCCC[S+](C)CCO` (stereo not shown) [compound 3, Pentyl-(2-hydroxyethyl)-methyl-sulfonium]: the pIC50 is 3.40 in series [1] (setting [8]) and 4.29 in series [3] (setting [9]).

Consider `[O-][S+](CCO)c1ccccc1` (stereo not shown) [compound 18, 2-hydroxyethyl-oxido-phenyl-sulfonium], for which the pIC50 in series [1] (setting [8]) was 3.89; in series [3] (setting [9]), 4.66.

`C[S+](CCO)CC(=O)O` (stereo not shown) [ID 15, 2-Acetic acid-(2-hydroxyethyl)-methyl-sulfonium]: the pEC50 in series [4] (read-out: EC50 (mol/L) whole cell wild-type P. mirabilis) was 7.21. Moreover, the “Remaining plasma TMAO as a percentage of plasma TMAO in same day vehicle control (% of control remaining)” value in the series on mice (C57b1/6) (Days 5) amounted to 69%. Also, the pIC50 in series [5] (read-out: IC50 (mol/L) recombinant P. mirabilis Cut C/D lysate) was 6.37; in series [6] (read-out: IC50 (mol/L) recombinant D. alaskensis Cut C/D lysate), 7.35.

Take `OCC[S+]1CCOCC1` [compound 23, 2-(1,4-oxathian-4-ium-4-yl)ethanol]: the pIC50 in series [1] is 4.97.

Turning to `C=CC[S+](C)CCO` (stereo not shown) [compound 1, Allyl-(2-hydroxyethyl)-methyl-sulfonium], the pIC50 was 7.34 in series [1] (setting [8]) and 4.38 in series [3] (setting [9]).

Turning to `C#CC[S+](C)CCO` (stereo not shown) [ID 2, Propargyl-(2-hydroxyethyl)-methyl-sulfonium], in series [4] (setting [7]), the pEC50 was 6.03. Also, in the series on C57b1/6 female mice, the “Calculated EC50 (mg/kg) compared to Vehicle Control” value is 85.50 mg/kg. For the same compound, the pIC50 in series [5] was 7.33; in series [6], 7.19.

As for `C[S+](C/C=C/Br)CCO` (stereo not shown) [compound 10, [(E)-3-bromoallyl]-(2-hydroxyethyl)-methyl-sulfonium], in series [1] (setting [8]), the pIC50 is 6.60.

For the compound `CCCCCC[S+](C)CCO` (stereo not shown) [compound 4, Hexyl-(2-hydroxyethyl)-methyl-sulfonium], the pIC50 is 4.23 in series [1] (setting [8]) and 3.21 in series [3] (setting [9]).

As for `C=CC[S+](C)CCO` (stereo not shown) [ID 1, Allyl-(2-hydroxyethyl)-methyl-sulfonium], the pEC50 in series [4] (setting [7]) is 7.14. Also, in the series with mice (C57b1/6) (Days 1), the “Remaining plasma TMAO as a percentage of plasma TMAO in same day vehicle control (% of control remaining)” value is recorded as 18%. In addition, the “Calculated EC50 (mg/kg) compared to Vehicle Control” value with C57b1/6 female mice is 0.87 mg/kg. In addition, the pIC50 in series [5] was 7.01; in series [6], 6.51.

Consider `C/C=C/C[S+](C)CCO` (stereo not shown) [ID 8, [(E)-but-2-enyl]-(2-hydroxyethyl)-methyl-sulfonium], for which, in series [4] (setting [7]), the pEC50 is 5.02. The “Remaining plasma TMAO as a percentage of plasma TMAO in same day vehicle control (% of control remaining)” value in the series with mice (C57b1/6) (Days 1) was determined as 62%. Further, the values for the pIC50 in series [5] and in series [6] were 5.82 and 6.57, respectively.

`C=CC[S+]([O-])CCO` (stereo not shown) [compound 22, Allyl-(2-hydroxyethyl)-oxido-sulfonium]: the pIC50 in series [1] (setting [8]) was 5.42; in series [3] (setting [9]) it was 3.99.

Take `C[S+](CCO)Cc1ccccc1` (stereo not shown) [compound 13]: the pIC50 in series [1] (setting [8]) was 4.35; in series [3] (setting [9]), 4.90.

Consider `C[S+](CI)CCO` (stereo not shown) [ID 6, Iodomethyl-(2-hydroxyethyl)-methyl-sulfonium], for which, in series [4] (Proteus mirabilis, read-out: EC50 (mol/L) whole cell wild-type P. mirabilis), the pEC50 is 6.70. Moreover, the “Remaining plasma TMAO as a percentage of plasma TMAO in same day vehicle control (% of control remaining)” value in the series on mice (C57b1/6) (Days 1) amounted to 3%. The “Calculated EC50 (mg/kg) compared to Vehicle Control” value in the series on C57b1/6 female mice is reported as 1.10 mg/kg. Also, the values for the pIC50 in series [5] and in series [6] were 6.44 and 5.43, respectively.

As for `C#CC[S+](CCO)c1ccccc1` (stereo not shown) [compound 5, (2-hydroxyethyl)(phenyl)(prop-2-yn-1-yl)sulfonium], the pIC50 in series [1] (setting [8]) was 3.70.
